In PMC9154793, “Design, synthesis, and biological evaluation of triazole-pyrimidine-methylbenzonitrile derivatives as dual A2A/A2B adenosine receptor antagonists” (Journal of Enzyme Inhibition and Medicinal Chemistry, 2022):
Where two headings read alike, the source gives them in different places.

Columns and labels:
human A2A AR = human A2A AR (Homo sapiens, UniProt P29274); assay: cAMP functional assay in CHO-K1/ADORA2A/Gα15 cells (NECA-stimulated, HTRF); format: cell-based; conditions: for IC50: CHO cells expressing hA2A AR, read-out: cAMP IC50 hA2A AR; for IC50 / inhibition at 0.01 µM / inhibition at 0.1 µM / inhibition at 1 µM: mean ± SEM; for inhibition at 0.01 µM / inhibition at 0.1 µM / inhibition at 1 µM: CHO-K1, relative to ZM241385 at 1 μM; for inhibition at 0.01 µM: compound at 10 nM, read-out: hA2A AR (%) inhibition of cAMP, 10 nM; for inhibition at 0.1 µM: compound at 100 nM, read-out: hA2A AR (%) inhibition of cAMP, 100 nM; for inhibition at 1 µM: compound at 1000 nM, read-out: hA2A AR (%) inhibition of cAMP, 1000 nM;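 for all read-outs here: inhibition of NECA-driven intracellular cAMP build-up in the A2A-expressing cells, quantified with cAMP-d2 plus Eu3+-labelled anti-cAMP detection reagent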
Procedure: In the cAMP assay, CHO-K1/ADORA2A/Gα15 cells expressing human A2A AR and CHO-K1/ADORA2b/Gα15 cells expressing human A2B AR were activated by 5′-(N-ethylcarboxamido)adenosine (NECA) and triggered the accumulation of intracellular cAMP concentration.
CHO-K1/ADORA2A/Gα15 cells expressing human A2A AR and CHO-K1/ADORA2b/Gα15 cells expressing human A2B AR were both constructed by Genscript Biotech Corporation. […] The test stock solutions were diluted with different gradients for use. The procedure was exemplified by the cAMP functional assay on the A2A receptor: 10,000 cells/well of CHO-K1/ADORA2A/Gα15 were seeded in a 384-well plate in 20 μl of assay buffer. […] Then, 10 μl of detection reagent (cAMP-d2 and anti-cAMP-Eu3+) was added into each well of the plate and incubated at room temperature for 1 h.

[1] = In vivo pharmacokinetics study in Balb/c mice; conditions: for Cmax / Tmax / half-life / AUC(0-inf) / bioavailability / AUC(0-t): female, Balb/c, mouse, plasma; for bioavailability: oral 30 mg/kg vs i.v. 10 mg/kg, read-out: F (absolute bioavailability)
Procedure: The in vivo pharmacokinetic (PK) profiles of compounds 7f and 7i were examined in […] Balb/c mice (Table 5 and Figure 5). […] After the intravenous (i.v.) administration of 10 mg/kg, the maximum plasma concentration of compounds 7f and 7i were 5010.30 µg/l at 0.25 h and 7266.60 µg/l at 0.25 h, respectively. […] These PK parameters can be used to evaluate the drug-like properties of compounds 7f and 7i, so as to clarify their effectiveness and obtain better clinical treatment effects.
The absolute bioavailabilities of synthetic compounds (7f, 7i) were studied in female Bal b/c mice (Jinan Pengyue Experimental Animal Breeding Co., Ltd.). The mice were divided into four groups each having six mice and were collected at crossover time points, with three mice at each point. Pharmacokinetics (PK) was evaluated after a single dose of 30 mg/kg oral gavage (Oral) or 10 mg/kg intravenous (i.v.) administration. After oral administration and i.v. injection, blood samples were obtained from the suborbital veniplex at pre, 15 min, 30 min, 1 h, 2 h, 4 h, 6 h, 8 h, 12 h, 24 h (Oral) and pre, 5 min, 15 min, 30 min, 1 h, 2 h, 4 h, 6 h, 8 h, 12 h, 24 h (i.v.). Approximately 200 μl of blood was collected at each time point. All blood samples were put into plastic microcentrifuge tubes containing Heparin-Na as an anticoagulant. Microcentrifuge tubes with blood samples and anticoagulant were inverted several times for proper mixing of the tube contents to centrifugation for plasma. Plasma samples will be centrifuged at 12,000 rpm for 8 min at 4 °C to obtain the supernatant. The serum sample (25 μl) was treated with acetonitrile (100 μl), after which the mixture was vortex-mixed for 8 min and centrifuged at 10,000 rpm for 10 min at 4 °C. The supernatant layer was collected and then 50 μl of supernatant was injected for the UPLC-MS/MS analysis (details of the analytical method see Supporting information). […]
9. Analytical method of pharmacokinetics assay
Animal experiments were performed according to the institutional ethical guidelines on animal care and approved by the Institute Animal Care and Use Committee at Binzhou […]
Female Bal b/c mice (sourced from Jinan Pengyue Experimental Animal Breeding Co., Ltd.) approximately 6-8 weeks of age, and a weight of approximately 20-30 g. All of the mice were permitted with free access to standard pelleted food and water ad libitum and were kept in clean cages under controlled conditions (light/ dark cycle of 12 h, 60 ± 2% humidity, and 25 ± 1 °C). Before the day of administration, […] were fasted for 12 h but allowed water ad libitum.
9.2 Design of bioavailability study
The mice were divided into 4 groups each having six mice and were collected at crossover time points, with three mice at each point. Pharmacokinetics (PK) was […]
evaluated after a single dose of 30 mg/kg oral gavage (Oral) and 10 mg/kg intravenous […]
(i.v.) administration. The blood samples were obtained from the suborbital veniplex.
Each cohort had three mice, and plasma was collected at pre, 5 min, 15 min, 30 min, 1 […]
h, 2 h, 4 h, 6 h, 8 h, 12 h, and 24 h post dose for intravenous administration. Plasma […]
was collected at pre, 15 min, 30 min, 1 h, 2 h, 4 h, 6 h, 8 h, 12 h, and 24 h post dose for […]
9.3 Samples collection and quantitative analysis
Approximately 200 μL of blood was collected at each time point. All blood samples […]
were put into plastic microcentrifuge tubes containing Heparin-Na as anticoagulant. […]
microcentrifuge tubes with blood samples and anticoagulant were inverted several […]
times for proper mixing of the tube contents to centrifugation for plasma. Plasma […]
samples will be centrifuged at 12000 rpm for 8 min at 4 ℃ to obtain the supernatant.
The serum sample (25 μL) was treated with acetonitrile (100 μL), after which the […]
mixture was vortex-mixed for 8 min and centrifuged at 10000 rpm for 10 min at 4 ℃.
The supernatant layer was collected and then 50 μL of supernatant was injected for the […]
9.4 Chromatography and mass spectrometry conditions […]

[2] = iv, i.v. 10 mg/kg, read-out: Cmax i.v.
[3] = oral 30 mg/kg, read-out: Cmax Oral
[4] = iv, i.v. 10 mg/kg, mean n = 3, read-out: t1/2 i.v. (converted)
[5] = iv, i.v. 10 mg/kg, read-out: AUC0→∞ i.v.
[6] = oral 30 mg/kg, mean n = 3, read-out: t1/2 Oral (converted)
[7] = oral 30 mg/kg, read-out: AUC0→t Oral
[8] = oral 30 mg/kg, read-out: AUC0→∞ Oral
[9] = po, 30 mg/kg, oral 30 mg/kg, read-out: tmax Oral

Sequence of human A2A AR (P29274 whole entry): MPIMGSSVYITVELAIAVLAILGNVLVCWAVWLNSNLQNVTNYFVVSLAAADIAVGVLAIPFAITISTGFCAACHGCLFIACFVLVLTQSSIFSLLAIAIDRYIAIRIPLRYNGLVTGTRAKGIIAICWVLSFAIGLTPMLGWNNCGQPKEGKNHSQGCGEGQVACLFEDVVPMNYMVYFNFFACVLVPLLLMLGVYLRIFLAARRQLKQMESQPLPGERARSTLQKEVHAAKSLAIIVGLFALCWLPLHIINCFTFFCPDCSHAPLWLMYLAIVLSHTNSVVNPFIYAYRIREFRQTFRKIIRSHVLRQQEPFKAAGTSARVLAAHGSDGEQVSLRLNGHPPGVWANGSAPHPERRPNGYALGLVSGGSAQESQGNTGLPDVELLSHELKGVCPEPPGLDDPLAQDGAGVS

For Cc1c(C#N)cccc1-c1cc(-c2cn(Cc3cccc(C#N)n3)nn2)nc(N)n1 [Compound 7f, 6-((4-(2-Amino-6-(3-cyano-2-methylphenyl)pyrimidin-4-yl)-1H-1,2,3-triazol-1-yl)methyl)picolinonitrile], which IC50 (human A2A AR) is on record?
Its IC50 is 24.04 ± 0.06 nM.

What about the inhibition at 0.01 µM (human A2A AR) of the same molecule?
The inhibition at 0.01 µM was 54.9 ± 1.19%.

What about the inhibition at 0.1 µM (human A2A AR) of the same molecule?
The inhibition at 0.1 µM was 84.2 ± 2.94%.

What about the inhibition at 1 µM (human A2A AR) of the same molecule?
Its inhibition at 1 µM is 92.41 ± 0.43%.

And the “fold less active than compound 7i (cAMP IC50, A2A receptor)” value (human A2A AR; ratio of cAMP IC50 values vs 7i)?
The value was 4 fold.

And the Cmax [1, 2]?
The Cmax was 5010 ng/mL.

What about the Cmax [1, 3] of the same molecule?
Its Cmax is 7160 ng/mL.

And the Tmax ([1]; iv, 10 mg/kg, i.v. 10 mg/kg, read-out: tmax i.v.)?
The Tmax was 0.25 h.

And the half-life [1, 4]?
The half-life was 2.67 h.

What about the AUC(0-inf) [1, 5] of the same molecule?
The AUC(0-inf) was 17300 ng·h/mL.

What about the bioavailability [1] of the same molecule?
The bioavailability was 87.7%.

And the half-life [1, 6]?
Its half-life is 4.12 h.

What about the AUC(0-t) [1, 7] of the same molecule?
The AUC(0-t) was 45500 ng·h/mL.

What about the AUC(0-inf) [1, 8] of the same molecule?
Its AUC(0-inf) is 46200 ng·h/mL.

And the Tmax [1, 9]?
Its Tmax is 2 h.

And the AUC0→t/Dose i.v. ([1]; i.v. 10 mg/kg)?
The AUC0→t/Dose i.v. was 1728.68 (µg/L*h)/(mg/kg).

What about the “AUC0→∞/Dose i.v.” value ([1]; i.v. 10 mg/kg) of the same molecule?
The value was 1731.60 (µg/L*h)/(mg/kg).

What about the Cmax/Dose i.v. ([1]; i.v. 10 mg/kg) of the same molecule?
Its Cmax/Dose i.v. is 501.03 (µg/L)/(mg/kg).

And the “AUC0→t/Dose Oral” value ([1]; oral 30 mg/kg)?
The value was 1516.35 (µg/L*h)/(mg/kg).

What about the “AUC0→∞/Dose Oral” value ([1]; oral 30 mg/kg) of the same molecule?
Its value is 1541.08 (µg/L*h)/(mg/kg).

And the “Cmax/Dose Oral” value ([1]; oral 30 mg/kg)?
The value was 238.76 (µg/L)/(mg/kg).

For Cc1c(C#N)cccc1-c1cc(-c2cn(Cc3cccc(C(N)=O)n3)nn2)nc(N)n1 [Compound 7i, 6-((4-(2-Amino-6-(3-cyano-2-methylphenyl)pyrimidin-4-yl)-1H-1,2,3-triazol-1-yl)methyl)picolinamide], which IC50 (human A2A AR) is on record?
The IC50 was 6.007 ± 0.05 nM.

And the inhibition at 0.01 µM (human A2A AR)?
The inhibition at 0.01 µM was 32.7 ± 1.8%.

What about the inhibition at 0.1 µM (human A2A AR) of the same molecule?
Its inhibition at 0.1 µM is 95.9 ± 3.36%.

What about the inhibition at 1 µM (human A2A AR) of the same molecule?
The inhibition at 1 µM was 103 ± 2.82%.

And the Cmax [1, 2]?
The Cmax was 7270 ng/mL.

And the Cmax [1, 3]?
Its Cmax is 1010 ng/mL.

What about the half-life [1, 4] of the same molecule?
The half-life was 2.19 h.

And the AUC(0-t) ([1]; iv, i.v. 10 mg/kg, read-out: AUC0→t i.v.)?
The AUC(0-t) was 4480 ng·h/mL.

And the AUC(0-inf) [1, 5]?
The AUC(0-inf) was 4480 ng·h/mL.

And the bioavailability [1]?
Its bioavailability is 58.8%.

And the half-life [1, 6]?
Its half-life is 4.82 h.

And the AUC(0-t) [1, 7]?
Its AUC(0-t) is 7900 ng·h/mL.

What about the AUC(0-inf) [1, 8] of the same molecule?
The AUC(0-inf) was 8150 ng·h/mL.

What about the Tmax [1, 9] of the same molecule?
Its Tmax is 1 h.

What about the AUC0→t/Dose i.v. ([1]; i.v. 10 mg/kg) of the same molecule?
The AUC0→t/Dose i.v. was 448.46 (µg/L*h)/(mg/kg).

What about the “AUC0→∞/Dose i.v.” value ([1]; i.v. 10 mg/kg) of the same molecule?
Its value is 448.48 (µg/L*h)/(mg/kg).

What about the Cmax/Dose i.v. ([1]; i.v. 10 mg/kg) of the same molecule?
The Cmax/Dose i.v. was 726.66 (µg/L)/(mg/kg).

And the “AUC0→t/Dose Oral” value ([1]; oral 30 mg/kg)?
Its value is 263.50 (µg/L*h)/(mg/kg).

And the “AUC0→∞/Dose Oral” value ([1]; oral 30 mg/kg)?
Its value is 271.51 (µg/L*h)/(mg/kg).

What about the “Cmax/Dose Oral” value ([1]; oral 30 mg/kg) of the same molecule?
Its value is 33.58 (µg/L)/(mg/kg).
